# Data published in patent US20230293458A1, “MULTIBIOTIC AGENTS AND METHODS OF USING THE SAME” (Flagship Pioneering Innovations V, Inc., priority 2017, published 2023).
# How the values were obtained:
# [1] = Stability of multibiotic agents in Simulated Gastric Fluid (SGF); assay type: in vitro ADME; details: simulated gastric fluid pH 1.6 with pepsin, 37° C., 1 μM
# Summary of the method: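 Compounds were incubated at 1 μM final at 37 °C in simulated gastric fluid containing NaCl, pH 1.6, with FaSSIF powder and 0.1 mg/mL pepsin. Aliquots were taken at T0 and at regular intervals and quenched with acetonitrile. Degradation rates were determined by LC/MS.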
# [2] = Stability of multibiotic agents in Simulated Intestinal Fluid (SIF); assay type: in vitro ADME; details: simulated intestinal fluid pH 6.7 with pancreatin, 37° C., 1 μM
# Summary of the method: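 Compounds at 1 μM final (from 1 mM DMSO stock) incubated at 37 °C with agitation in fresh SIF (FaSSIF plus pancreatin in pH 6.7 phosphate buffer). Aliquots taken at T0 and regular intervals, quenched with 1 volume acetonitrile. Degradation rate determined by LC/MS.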
# [3] = Assay 4. Fecal Incubation Stability; assay type: in vitro ADME; details: fecal slurry in YCFA media, anaerobic, 1 or 10 μM
# Procedure: Assay 4. Fecal Incubation Stability. This assay can be used to assess the stability of a multibiotic agent in a large intestine. All experiments performed in an anaerobic chamber containing 90% nitrogen, 5% hydrogen and 5% carbon dioxide. Fecal matter in a slurry (15% (w/v)) was added to 96 well plates containing YCFA media or other suitable media (1.6 mL). Compounds were added to each individual well to reach a final analyte concentration of 1 or 10 μM, and the material was mixed by pipetting. At predetermined timepoints a sample was removed, quenched with acetonitrile, and analyzed by LC/MS.
# [4] = Assay 1. Stability of multibiotic agents in a buffer; assay type: physicochemical; design: key to Assay 1 (% Remaining @ 24 hours): A: <25% of the tested compound remaining; B: 25-75% of the tested compound remaining; C: >75% of the tested compound remaining; D: no change in the amount of the tested compound
# Procedure: Assay 1. Stability of multibiotic agents in a buffer. This assay can be used for the assessment of the stability of a multibiotic agent at different physiological pH levels.
# Compounds were diluted in DMSO, and the resulting solution was added in the appropriate quantity to phosphate buffer (pH levels 2, 4, 6, and 8) to reach a total sample concentration of 2 μM. Compounds were incubated at RT, and aliquots were removed at time points 0, 60, 120, 360 and 1440 minutes and analyzed for purity by LC/MS/MS.
Compound,Assay 2 (SGF) (% Remaining @ 4 hours) [1],Assay 3 (SIF) (% @ Remaining 4 hours) [2],Assay 4 (% Remaining at 24 h) [3],"degradation in Assay 1 (in words) ([4]; buffer stability, Assay 1)","Assay 1 (% Remaining @ 24 hours) ([4]; phosphate buffer pH 2, 4, 6 and 8, RT, 2 μM, 24 hours, LC/MS/MS)"
"CCCC(=O)Oc1cc(OC(=O)CCC)c2c(c1)O[C@H](c1cc(OC(=O)CCC)c(OC(=O)CCC)c(OC(=O)CCC)c1)[C@H](OC(=O)c1cc(OC(=O)CCC)c(OC(=O)CCC)c(OC(=O)CCC)c1)C2 [Example 15, [(2R,3R)-5,7-di(butanoyloxy)-2-[3,4,5-tri(butanoyloxy)phenyl]chroman-3-yl] 3,4,5-tri(butanoyloxy)benzoate]",C (>75% of the tested compound remaining),C (>75% of the tested compound remaining),C (>75% of the tested compound remaining),–,–
"CC(=O)Oc1cc(OC(C)=O)c2c(c1)O[C@H](c1cc(OC(C)=O)c(OC(C)=O)c(OC(C)=O)c1)[C@H](OC(=O)c1cc(OC(C)=O)c(OC(C)=O)c(OC(C)=O)c1)C2 [Example 16, [(2R,3R)-5,7-diacetoxy-2-(3,4,5-triacetoxyphenyl)chroman-3-yl] 3,4,5-triacetoxybenzoate]",C (>75% of the tested compound remaining),A (<25% of the tested compound remaining),A (<25% of the tested compound remaining),–,–
"CCCC(=O)O[C@@H]1[C@@H](OC(=O)CCC)[C@@H](Oc2ccc(N)cc2C(=O)O)OC[C@H]1OC(=O)CCC [Example 20, 5-amino-2-[(2R,3R,4S,5R)-3,4,5-tri(butanoyloxy)tetrahydropyran-2-yl]oxy-benzoic acid]",C (>75% of the tested compound remaining),C (>75% of the tested compound remaining),A (<25% of the tested compound remaining),–,–
"CCCC(=O)O[C@@H]1[C@@H](OC(=O)CCC)[C@H](Oc2ccc(N)cc2C(=O)O)OC[C@H]1OC(=O)CCC [Example 21, 5-amino-2-[(2S,3R,4S,5R)-3,4,5-tri(butanoyloxy)tetrahydropyran-2-yl]oxy-benzoic acid]",C (>75% of the tested compound remaining),C (>75% of the tested compound remaining),–,no apparent degradation,D
"CCCC(=O)Oc1ccc2c(c1)oc(=O)c1cc(OC(=O)CCC)c(OC(=O)CCC)cc12 [Example 52, 8,9-di(butanoyloxy)-6-oxo-benzo[c]chromen-3-yl] butanoate]",–,–,A (<25% of the tested compound remaining),–,–
"O=C(CCc1c[nH]c2ccccc12)Oc1ccc(/C=C/c2cc(OC(=O)CCc3c[nH]c4ccccc34)cc(OC(=O)CCc3c[nH]c4ccccc34)c2)cc1 [Example 71, [4-[(E)-2-[3,5-bis[3-(1H-indol-3-yl)propanoyloxy]phenyl]vinyl]phenyl] 3-(1H-indol-3-yl)propanoate]",C (>75% of the tested compound remaining),C (>75% of the tested compound remaining),C (>75% of the tested compound remaining),–,–
"CCCC(=O)O[C@H](C)CC(=O)O[C@H]1CO[C@H]2[C@@H]1OC[C@H]2OC(=O)C[C@@H](C)OC(=O)CCC [Example 79, [(3S,3aR,6R,6aR)-6-[(3R)-3-butanoyloxybutanoyl]oxy-2,3,3a,5,6,6a-hexahydrofuro[3,2-b]furan-3-yl] (3R)-3-butanoyloxybutanoate]",C (>75% of the tested compound remaining),B (25-75% of the tested compound remaining),B (25-75% of the tested compound remaining),–,–
